Like-named read-outs stand apart in the source and are kept apart here.
Tests used:
Format in all cases: cell-based, human
[1] = system: washed platelets of sepsis patients; experiment: Light transmission aggregometry with washed platelets; conditions: for aggregation at last visit, discharged patients vs patients who died: last available values (discharge/death)
Protocol: Platelet reactivity assays are shown at the following time points: I: admission day, II: day 5-7 and III: day of ICU discharge. (S)=sepsis patient; (HC)=healthy control. (A-H) Platelet integrin activation (A, C, E, G) and P-selectin exposure (B, D, F, H) were measured upon stimulation with CRP-XL [0.01 μg/mL](A-D), Convulxin [0.01 μg/ml] (E, F) and ADP [5 μM] (G, H) in whole blood by flow cytometry. Representative curves upon CRP-XL stimulation at time point I are shown in A and B. (I-N) Light transmission aggregometry was performed using washed platelets [500 000 1/μL]. (I-N) Maximum aggregation is depicted upon stimulation with CRP-XL [0.1 μg/mL] […] (K, L) and TRAP-6 [10 μM] (M, N). Representative curves are shown in FIG. I, K, M. […] Graphs show median±IQR. Differences were analyzed by Kruskal-Wallis test (A-N). n.s. non-significant, *p>0.05, **p>0.01, ***p>0.001, ****p>0.0001
Platelet reactivity of healthy controls (HC) and patients with sepsis (S) is depicted upon stimulation with CRP-XL standard dose [0.1 μg/mL in aggregometry; 0.01 μg/mL in flow cytometry] and CRP-XL high dose (CRP-XLhi) [1 μg/mL] (A-B) Platelet activation due to integrin activation indicated through PAC-1 binding (A) or P-selectin exposure (B) was assessed in whole blood by flow cytometry. (C-D) Light transmission aggregometry was performed using washed platelets [500 000 1/μL]. Samples were measured for 5 minutes. Representative curves are shown in C. (D-E) Platelets were lysed after 5 minutes of CRP-XL stimulation or resting conditions. Staining was performed with phospho-tyrosine antibody 4g10. 72 kDa band intensity was set in relation to a housekeeping protein in arbitrary units (AU). All graphs show median f IQR.
(A) Light transmission aggregometry was performed using washed platelets [500 000 1/μL]. Maximum aggregation is depicted upon stimulation with CRP-XL (C) [0.1 μg/mL] and TRAP-6 [5 μM](T). (B) mean platelet volume. (C) Reticulated platelets indicated as thiazole orange (TO) positive fraction were assessed by flow cytometry. (D) GPVI-ectodomain plasma-levels measured by ELISA. (E) Platelet count. (F) SOFA-Score. All graphs show median f IQR. Differences were analyzed using Kolmogorov-Smirnov test. n.s. non-significant, *p>0.05, **p>0.01,
After centrifugation of whole blood at 152 g for 20 min, platelet rich plasma (PRP) was separated and incubated in acetylsalicylic acid (ASS) for 30 min (final concentration 2 μM). Prostaglandine E1 (1 μM) and apyrase (2 U/mL) were added and platelets were washed with modified HEPES-buffered Tyrode's solution once (1000 g, 10 min). PPP was cryopreserved for further investigation. Afterwards platelet count was adjusted to 500 000 1/μL through resuspension in re-calcified Hepes buffered Tyrode's solution (CaCl2) 2 mM). Light transmission aggregometry was performed using an APACT 4S (LABiTec, Ahrensburg, Germany) aggregometer at 37° C. stirring conditions. Maximum aggregation was assessed in percent in relation to re-calcified Hepes buffered Tyrode's solution as blank. For further molecular analysis platelets were lysed through addition of ice-cold 2× lysis buffer (NaCl150 mM, HEPES 15 mM, EGTA10 mM, Triton X-100 2%, Na3VO4 2 mM, PMSF 1 mM, Aprotinin A 1 mM, Leupeptin 1 mM, Pepstatin 1 mM).

[2] = system: platelets of Covid-19 patients
[3] = system: platelets (GPVI-mediated platelet reactivity); experiment: Platelet-antibiotic co-incubation in whole blood, P-selectin exposure by flow cytometry; conditions: whole blood of healthy donors, antibiotic at therapeutic peak plasma level, 2 h at 37° C., resting and CRP-XL [0.01 μg/mL] stimulated platelets
Protocol: Antibiotics were added to whole blood of healthy donors. Incubation was performed for 2 h at 37° C. P-selectin exposure was determined subsequently by flow cytometry on resting (A) and CRP-XL [0.01 μg/mL] stimulated platelets (B). The following drugs were used: piperacillin/tazobactam [P/T=298 μg/mL; 4 μg/mL], vancomycin [V=60 μg/mL], metronidazole [M=25 μg/mL], ciprofloxacin [Cx=4.56 μg/mL].
Whole blood was diluted 1:10 in modified HEPES-buffered Tyrode's solution (NaCl 137 mM, NaHCO312 mM, HEPES 5 mM, KCl 2.7 mM, MgCl2 1 mM, Na2HPO4 0.43 mM, glucose 0.1%, BSA 0.36%). Flow cytometry was conducted using a FACSCelesta™ flow cytometer (Becton Dickinson, Franklin Lakes, NJ, USA). Prior to reactivity measurement, platelets were incubated with respective agonists at indicated concentrations for five minutes. Staining of reticulated platelets was performed using thiazole orange (Sigma Aldrich, St. Louis, MO, USA) for 60 min at room temperature protected from light. After antibody addition samples rested for 15 min in the dark until the reaction was stopped with addition of 1.5 mL FACS-Flow sample buffer (Becton Dickinson).
As all sepsis patients received antibiotic therapy, the present inventors next evaluated whether antimicrobial drugs could reduce GPVI/CLEC-2 reactivity.

[4] = system: platelets of sepsis patients; experiment: Platelet reactivity by flow cytometry in whole blood (PAC-1 binding, CD62P exposure); conditions: sepsis patients vs healthy controls, day of ICU admission; CRP-XL 0.01 μg/mL, convulxin 0.01 μg/mL, ADP 5 μM
Protocol: Platelet reactivity assays are shown at the following time points: I: admission day, II: day 5-7 and III: day of ICU discharge. (S)=sepsis patient; (HC)=healthy control. (A-H) Platelet integrin activation (A, C, E, G) and P-selectin exposure (B, D, F, H) were measured upon stimulation with CRP-XL [0.01 μg/mL](A-D), Convulxin [0.01 μg/ml] (E, F) and ADP [5 μM] (G, H) in whole blood by flow cytometry. […] (I-N) Maximum aggregation is depicted upon stimulation with CRP-XL [0.1 μg/mL] (I, J) rhodocytin [1 nM] (K, L) and TRAP-6 [10 μM] (M, N). […] Graphs show median±IQR. Differences were analyzed by Kruskal-Wallis test (A-N). n.s. non-significant, *p>0.05, **p>0.01, ***p>0.001, ****p>0.0001
Platelet reactivity of healthy controls (HC) and patients with sepsis (S) is depicted upon stimulation with CRP-XL standard dose [0.1 μg/mL in aggregometry; 0.01 μg/mL in flow cytometry] and CRP-XL high dose (CRP-XLhi) [1 μg/mL] (A-B) Platelet activation due to integrin activation indicated through PAC-1 binding (A) or P-selectin exposure (B) was assessed in whole blood by flow cytometry. (C-D) Light transmission aggregometry was performed using washed platelets [500 000 1/μL]. Samples were measured for 5 minutes. […] All graphs show median f IQR. […]

washed platelets = experiment: Immunoblot of global tyrosine phosphorylation (4G10) in platelet lysates; conditions: 0.1 μg/mL CRP-XL or 10 nM rhodocytin
Protocol: Washed platelets [500 000 1/μL] of healthy controls (HC) and patients (S) were stimulated with CRP-XL (C) and rhodocytin (R). Lysis was done at the following time points: C: 5 min, R: 10 min. I: admission day, II: day 5-7 and III: day of ICU discharge. (A-C) Western Blot analysis of platelet lysates. Staining was performed with anti-phospho-tyrosine antibody 4g10. 72 kDa band intensity was set in relation to signal intensity of Syk or GAPDH in arbitrary units (AU). Representative blots are shown in figures A (time point I) and B (time point III). (D-F) Phosphorylation of signaling peptides Syk and Lat was investigated by Western blot. One representative blot is shown in D. (G-J) Phosphorylation analysis of ITIM-signaling associated phosphatases SHP-1 and SHP-2. Phospho-protein intensity was set in relation to intensity of unphosphorylated protein shown in H and J. Representative Western blots are shown in G and I. All graphs display median f IQR.
After centrifugation of whole blood at 152 g for 20 min, platelet rich plasma (PRP) was separated and incubated in acetylsalicylic acid (ASS) for 30 min (final concentration 2 μM). Prostaglandine E1 (1 μM) and apyrase (2 U/mL) were added and platelets were washed with modified HEPES-buffered Tyrode's solution once (1000 g, 10 min). […] Maximum aggregation was assessed in percent in relation to re-calcified Hepes buffered Tyrode's solution as blank. […]

Molecule: TRAP-6
- aggregation at last visit, discharged patients vs patients who died ([1]; sepsis patients): no differences
- aggregation potential, mean ([1]; sepsis platelets, day of ICU admission, 10 μM TRAP-6): 34.2%
- aggregation potential, minimum ([1]; sepsis platelets, day of ICU admission, 10 μM TRAP-6, every studied patient): ≥ 21.2%
- platelet reactivity upon stimulation [2]: global hyporeactivity

Molecule: CN[C@H](CC(C)C)C(=O)N[C@H]1C(=O)N[C@@H](CC(N)=O)C(=O)N[C@H]2C(=O)N[C@H]3C(=O)N[C@H](C(=O)N[C@H](C(=O)O)c4cc(O)cc(O)c4-c4cc3ccc4O)[C@H](O)c3ccc(c(Cl)c3)Oc3cc2cc(c3O[C@@H]2O[C@H](CO)[C@@H](O)[C@H](O)[C@H]2O[C@H]2C[C@](C)(N)[C@H](O)[C@H](C)O2)Oc2ccc(cc2Cl)[C@H]1O [vancomycin]
- impact on GPVI-mediated platelet reactivity (P-selectin exposure) [3]: none of these drugs had an impact on GPVI-mediated platelet reactivity

Molecule: Nc1ncnc2c1ncn2[C@@H]1O[C@H](COP(=O)(O)OP(=O)(O)O)[C@@H](O)[C@H]1O [ADP]
- platelet reactivity upon stimulation ([2]; 19 critically-ill Covid-19 patients, 14 days at ICU): global hyporeactivity
- platelet activation (PAC-1 binding, CD62P exposure) upon stimulation [4]: platelet reactivity was also highly impaired

Molecule: piperacillin/tazobactam
- impact on GPVI-mediated platelet reactivity (P-selectin exposure) [3]: none of these drugs had an impact on GPVI-mediated platelet reactivity

Molecule: Cc1ncc([N+](=O)[O-])n1CCO [metronidazole]
- impact on GPVI-mediated platelet reactivity (P-selectin exposure) [3]: none of these drugs had an impact on GPVI-mediated platelet reactivity

Molecule: O=C(O)c1cn(C2CC2)c2cc(N3CCNCC3)c(F)cc2c1=O [ciprofloxacin]
- impact on GPVI-mediated platelet reactivity (P-selectin exposure) [3]: none of these drugs had an impact on GPVI-mediated platelet reactivity

B1: convulxin (protein)
chain 1: GLHCPSDWYYYDQHCYRIFNEEMNWEDAEWFCTKQAKGAHLVSIKSAKEADFVAWMVTQNIEESFSHVSIGLRVQNKEKQCSTKWSDGSSVSYDNLLDLYITKCSLLKKETGFRKWFVASCIGKIPFVCKFPPQC
chain 2: GFCCPSHWSSYDRYCYKVFKQEMTWADAEKFCTQQHTGSHLVSFHSTEEVDFVVKMTHQSLKSTFFWIGANNIWNKCNWQWSDGTKPEYKEWHEEFECLISRTFDNQWLSAPCSDTYSFVCKFEA
- platelet activation (PAC-1 binding, CD62P exposure) upon stimulation [4]: impaired platelet activation was still evident, albeit to a lesser extent compared to CRP-XL

B2: rhodocytin: selective CLEC-2 agonist (protein)
chain 1: GLEDCDFGWSPYDQHCYQAFNEQKTWDEAEKFCRAQENGAHLASIESNGEADFVSWLISQKDELADEDYVWIGLRAQNKEQQCSSEWSDGSSVSYENLIDLHTKKCGALEKLTGFRKWVNYYCEQMHAFVCKLLPY
chain 2: DCPSGWSSYEGHCYKPFNEPKNWADAERFCKLQPKHSHLVSFQSAEEADFVVKLTRPRLKANLVWMGLSNIWHGCNWQWSDGARLNYKDWQEQSECLAFRGVHTEWLNMDCSSTCSFVCKFKA
- induction of tyrosine phosphorylation (pTyr bands) (washed platelets; platelets of healthy donors): readily inducible in healthy donors
- induction of tyrosine phosphorylation (pTyr bands) (washed platelets; platelets of sepsis patients): tyrosine phosphorylation was not inducible in platelets of sepsis patients
- platelet aggregation upon stimulation ([1]; sepsis patients vs healthy controls, time point I, CRP-XL 0.1 μg/ml, rhodocytin 10 nM): abolished aggregation was found in 5/8 patients
- aggregation at last visit, discharged patients vs patients who died ([1]; sepsis patients): no differences
- maximum aggregation, recovery at discharge ([1]; sepsis patients, time point III (discharge from ICU), CRP-XL 0.1 μg/ml, rhodocytin): completely recovered

Reference: patent publication US12699084B2, “Method and means for diagnosing a human sepsis” (Julius-Maximilans-Universität Würzburg, priority 2019, dated 2026)
